Results taken from patent publication US20240352040A1, “CRYSTAL FORM OF RIPK1 INHIBITOR, ACID SALT THEREOF, AND CRYSTAL FORM OF ACID SALT THEREOF” (GENFLEET THERAPEUTICS (SHANGHAI) INC., priority 2021, published 2024).
Converted amounts (≈) assume the structure as drawn. Structures can show the parent of a compound that is named as a salt. Where two headings read alike, the source gives them in different places.

How the values were obtained:
[1] = Rough solubility in different solvent systems at room temperature; assay type: physicochemical; conditions: 50 °C, organic solvent or mixture, thermodynamic from solid, *Dissolve to clear at 50° C.
[2] = as above; assay type: physicochemical
Procedure: The rough solubility of the free base anhydrous crystal form A of the compound of formula I obtained in Example 1 and the monohydrate crystal form C of the sulfate salt of the compound of formula I obtained in Example 4 was tested in different solvent systems at room temperature. About 2 mg of the solid sample was weighed into an HPLC vial, and then the corresponding solvent was gradually (50/50/200/700 μL in sequence) added thereto and shaken until the solid dissolved to clear. If the sample was still not dissolved to clear after the addition of 1 mL of solvent, no more solvent would be added. The rough solubility ranges calculated from the mass of the solid sample, the volume of the added solvent, and the observed dissolution phenomena are shown in Table 25-1 and Table 25-2.

RIPK1 = target: T1, RIPK1 (Homo sapiens, UniProt Q13546); assay: Inhibitory activity against RIPK1 enzyme, P33-ATP / MBP substrate radiometric assay; assay type: biochemical; conditions: 36 nM RIPK1, 0.33 mg/mL MBP, 155 μM P33 ATP, 2 hours room temperature
T1 construct: purchased Eurofins 16-022
T1 sequence (Q13546 1-671): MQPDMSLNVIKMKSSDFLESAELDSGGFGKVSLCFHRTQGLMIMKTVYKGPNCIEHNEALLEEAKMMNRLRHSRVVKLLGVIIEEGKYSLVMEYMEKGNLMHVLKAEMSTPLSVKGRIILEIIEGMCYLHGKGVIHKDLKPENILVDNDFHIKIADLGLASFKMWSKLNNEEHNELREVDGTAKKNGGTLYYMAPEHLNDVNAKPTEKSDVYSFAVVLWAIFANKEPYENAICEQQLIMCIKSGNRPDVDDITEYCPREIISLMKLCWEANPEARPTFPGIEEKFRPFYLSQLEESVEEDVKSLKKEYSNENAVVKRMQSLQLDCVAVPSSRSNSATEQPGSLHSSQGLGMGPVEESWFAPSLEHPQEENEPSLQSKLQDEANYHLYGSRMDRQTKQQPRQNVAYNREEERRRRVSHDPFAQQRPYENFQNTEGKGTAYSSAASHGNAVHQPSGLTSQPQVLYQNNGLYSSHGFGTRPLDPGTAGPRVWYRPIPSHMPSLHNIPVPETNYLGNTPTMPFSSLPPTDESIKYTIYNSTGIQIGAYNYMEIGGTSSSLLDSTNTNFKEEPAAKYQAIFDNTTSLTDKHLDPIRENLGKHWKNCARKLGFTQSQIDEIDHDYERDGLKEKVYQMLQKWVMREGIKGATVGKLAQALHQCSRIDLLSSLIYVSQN
Procedure: (§1) The U937 cell line used in the following test examples was derived from ATCC, No.: CRL-1593.2, batch No.: 63479999, culture medium: RPMI-1640+10% FBS. The L929 cell line used in the following test examples was derived from ATCC, No.: CCL-1, batch No.: 70001022, culture medium: MEM+10% FBS+1% PS. […]
The test compound was dissolved in DMSO to prepare a 10 mM stock solution, and diluted 3.16-fold with DMSO to a series of gradient concentrations. […] The final reaction system was detected using a liquid scintillation counter after treatment. The result after detection was subtracted from the blank control and converted to the percentage of activity compared with the reading of the control group. […]

U937 cells = assay: Inhibition of TNF-α-induced programmed cell necrosis (necroptosis) in U937 cells, CellTiter-Glo; assay type: cell-based; conditions: U-937, human TNF-α + Q-VD-Oph, 48 hours, read-out: inhibitory IC50 against programmed necroptosis of cells induced by TNF-α
Text: The U937 cell line used in the following test examples was derived from ATCC, No.: CRL-1593.2, batch No.: 63479999, culture medium: RPMI-1640+10% FBS. The L929 cell line used in the following test examples was derived from ATCC, No.: CCL-1, batch No.: 70001022, culture medium: MEM+10% FBS+1% PS. The reagents used, their suppliers, and item numbers are as follows: RPMI-1640, Gibco, 11875-093; FBS, Gibco, 10099-141; Trypsin-EDTA, Gibco, 25200-072; PS, Gibco, 15140-122; CellTiter Glo, Promega, G7573; DMSO, VWR AMRESCO, 0231-500ML; TNF-α protein (human, recombinant), Peprotech, 300-01A; Q-VD-Oph, MCE, HY-12305; V-bottom plate, Corning, 3894; 384-well low flange white flat bottom microplate, Corning, 3570; RIPK1, Eurofins, 16-022; MOPS, BDH, 441644J; EDTA, Sigma, E5134; myelin basic protein, Sigma, M1891-25.00 MG; magnesium acetate, Merck, DU008026; ATP (non-radioactive labelled), Sigma, A-7699; ATP (radioactive labelled), Hartmann Analytic, DU008054; phosphoric acid, Metlab, DU003000; Z-VAD: Shanghai Twochem, YA02401.
(§2) The test compound was dissolved in DMSO and diluted to a series of concentration gradients with DMSO. […] After sufficient lysis reaction, the chemiluminescence readings were recorded by a microplate reader. The survival rate was calculated from the detection results using the equation as follows: SR (%)=(RLU compound−RLU blank)/(RLU high control−RLU blank)×100%. […]

L929 cells = assay: Inhibition of TNF-α-induced programmed necrosis of L929 cells, CellTiter-Glo; assay type: cell-based; conditions: 30 ng/mL mouse TNF-α + 15 μM Z-VAD, 6 hours, read-out: inhibitory IC50 against programmed necroptosis of cells induced by TNF-α
Procedure: as §1
as §2, with “The” for “The test”, “DMSO to prepare a 10 mM stock solution” for “DMSO”, “diluted 3.16-fold with DMSO” for “diluted”, “gradient concentrations.” for “concentration gradients with DMSO.”

[3] = Suspension competition test between crystal forms of the sulfate salt (anhydrous/hydrate transformation relationship); assay type: physicochemical
Procedure: A suspension competition test between the anhydrous crystal form A of the sulfate salt obtained in Example 5 and the anhydrous crystal form D of the sulfate salt obtained in Example 19 was set up, including conditions of 5° C., 25° C., and 50° C. in methanol and 25° C. in ACN. (Test numbers are from A1 to A4)
A suspension competition test between the monohydrate crystal form C of the sulfate salt obtained in Example 4 and the anhydrous crystal form A of the sulfate salt obtained in Example 5 was set up at room temperature, including a suspension competition test in ACN/H2O (aw=0/0.2/0.4/0.6/0.8) of different water activities at room temperature. (Test numbers are from B1 to B5)
The specific steps are as follows: 1) saturated solutions of sulfate salt in different solvent systems at room temperature were prepared; 2) equal mass of the corresponding samples of crystal form of sulfate salt (about 5 mg each) were added to 1 mL of saturated solution to form a suspension, respectively; 3) the suspension was magnetically stirred at corresponding temperature; 4) the remaining solid was separated and tested by XRPD.

[4] = Hygroscopicity by dynamic vapor sorption (DVS) at 25° C.; assay type: physicochemical
Procedure: (3) Dynamic vapor sorption (DVS): Dynamic vapor sorption (DVS) curves were collected on DVS Intrinsic from SMS (surface measurement systems). The relative humidity at 25° C. was corrected using the deliquescence points of LiCl, Mg(NO3)2, and KCl.
The hygroscopicity of the sample of the monohydrate crystal form C of the sulfate salt obtained in […] was evaluated through the DVS test from 0% RH to […] at 25° C.

[5] = Solid state stability (XRPD crystal form, HPLC purity); assay type: physicochemical; conditions: for Purity / Purity/initial purity / Initial purity: HPLC; for Crystal form transition: XRPD; for Initial purity: before the stability test, monohydrate crystal form C of sulfate salt
Procedure: (6) High performance liquid chromatography (HPLC): Purity and solubility in the test were determined by Agilent 1260 high performance liquid chromatograph, and the analytical conditions are shown in Table 4.
Appropriate amounts of the samples of the monohydrate crystal form C of the sulfate salt […], and then placed for one week in an open state of 40° C./75% RH. Solid samples separated under different conditions were respectively subjected to XRPD test to evaluate the transition of crystal forms, and subjected to HPLC test to evaluate purity and chemical stability.

[6] = 40° C./75% RH/1 week, open, listed as Example 4
[7] = 40° C./75% RH/1 week, open, listed as Example 9
[8] = 60° C./sealed/1 week, listed as Example 4
[9] = 60° C./sealed/1 week, listed as Example 9
[10] = sealed 24 hours at 60° C., open one week at 40° C./75% RH, two batches

Q: For `Nc1nc2cc(-c3cnc4c(c3)C(=O)N(Cc3cc(OC(F)(F)F)ccc3F)CC4)ccn2n1`, which solubility ([1]; isopropanol) is on record?
A: < 2400 µg/mL

Q: What about the solubility ([2]; dimethyl sulfoxide, organic solvent or mixture, thermodynamic from solid, Dimethyl sulfoxide, read-out: Solubility) of the same compound?
A: > 42000 µg/mL

Q: For `Nc1nc2cc(-c3cnc4c(c3)C(=O)N(Cc3cc(OC(F)(F)F)ccc3F)CC4)ccn2n1` [compound of formula I, 3-(2-amino-[1,2,4]triazolo[1,5-a]pyridin-7-yl)-6-(2-fluoro-5-(trifluoromethoxy)benzyl)-7,8-dihydro-1,6-naphthyridin-5(6H)-one], which IC50 (RIPK1) is on record?
A: 39 nM

Q: And the IC50 (U937 cells)?
A: 6 nM

Q: And the IC50 (L929 cells)?
A: 3 nM

Q: What does the source list for `Nc1nc2cc(-c3cnc4c(c3)C(=O)N(Cc3cc(OC(F)(F)F)ccc3F)CC4)ccn2n1` [free base anhydrous crystal form A, 3-(2-amino-[1,2,4]triazolo[1,5-a]pyridin-7-yl)-6-(2-fluoro-5-(trifluoromethoxy)benzyl)-7,8-dihydro-1,6-naphthyridin-5(6H)-one]?
A: solubility ([1]; dimethyl sulfoxide): 7700 to 23000 µg/mL (≈ 16.3 to 48.7 mM); solubility ([2]; Methanol): S < 1.8 mg/mL; solubility ([2]; acetone, organic solvent or mixture, thermodynamic from solid, Acetone, read-out: Solubility): < 1800 µg/mL; solubility ([2]; acetonitrile, organic solvent or mixture, thermodynamic from solid, Acetonitrile, read-out: Solubility): < 1900 µg/mL; solubility ([2]; ethanol, organic solvent or mixture, thermodynamic from solid, Ethanol, read-out: Solubility): < 2200 µg/mL; solubility ([2]; isopropanol, organic solvent or mixture, thermodynamic from solid, Isopropanol, read-out: Solubility): < 1900 µg/mL; solubility ([2]; n-heptane, organic solvent or mixture, thermodynamic from solid, n-Heptane, read-out: Solubility): < 1700 µg/mL; solubility ([2]; water, thermodynamic from solid, Water, read-out: Solubility): < 2100 µg/mL

Q: What does the source list for `Nc1nc2cc(-c3cnc4c(c3)C(=O)N(Cc3cc(OC(F)(F)F)ccc3F)CC4)ccn2n1` [monohydrate crystal form C of the sulfate salt]?
A: thermodynamic stability range under different water activities ([3]; room temperature): relatively wide; solubility ([2]; Acetone): S < 2.4 mg/mL; solubility ([2]; Acetonitrile): S < 2.4 mg/mL; solubility ([2]; Water): S < 2.4 mg/mL; solubility ([2]; n-Heptane): S < 2.3 mg/mL; hygroscopicity assessment ([4]; DVS, 25° C.): slightly hygroscopic; hygroscopic weight gain ([4]; DVS, 25° C./80% RH): about 0.2700; crystal form transition after the DVS test (XRPD) ([4]; after DVS test): no crystal form transition; Purity [5, 6]: 99.46%; Purity/initial purity [5, 6]: 99.98%; Purity [5, 7]: 99.45%; Purity/initial purity [5, 7]: 99.93%; Crystal form transition ([5]; 40° C./75% RH/1 week, open): No; Purity [5, 8]: 99.47%; Purity/initial purity [5, 8]: 99.99%; Purity [5, 9]: 99.39%; Purity/initial purity [5, 9]: 99.87%; Crystal form transition ([5]; 60° C./sealed/1 week): No; Initial purity ([5]; listed as Example 4): 99.48%; Initial purity ([5]; listed as Example 9): 99.52%; change in HPLC purity [5, 10]: do not show any significant decrease; change of crystal form (XRPD) [5, 10]: does not change

Q: With `O=S(=O)(O)O` [sulfate] as the compound, how does the “solid form obtained after stirring in water” value ([3]; water, water activity of about 1) read?
A: free base crystal form A was obtained
